# Test results: PMC11445722, “Synthesis, Characterization, and Biological Evaluation of Novel [M(η^6-arene)2]^+ (M = Re, ^99mTc) Hosted Terpyridines and Copper Complexes Thereof” (Inorganic Chemistry, 2024)
# Experiments:
# Type in all cases: cell-based
# [1] = test system: HT29 (human colon adenocarcinoma); assay: Cell viability (resazurin) assay, 2D model, HT29; details: 48 h incubation, three independent experiments, read-out: IC50 ± SEM, HT29
# Description: (§1) First, the cytotoxic activity of the compounds was investigated in different cancerous and noncancerous cell lines, namely, HT29 (human colon adenocarcinoma), A549 (human lung adenocarcinoma), and RPE-1 (human retinal epithelium). Cisplatin was used as a positive control. Cells were first incubated for 48 h with the complexes before cell viability was measured with a colorimetric resazurin assay.
# (§2) Ce ll Culture: T he RPE-1 c ell l ine wa s cul ture d in DME M /F12 med iu m (G ibco) . T h e HT29 c ell line was
# culture d in McCoy me dium (Gibco).
# (§3) All ce ll line s were co mple me nted wit h 10% o f fetal calf ser um ( Gibco) and 100 U.mL-1 penicillin-
# (§4) streptomycin mixture (Gibco) and maintained in a humidiﬁed atmosphere at 37 °C and 5% CO2.
# (§5) Cell Viability Assay using a 2D Cellular Model: The cytotoxicity of the compounds was assessed by a
# (§6) ﬂuorometric ce ll viability assay using Resazurin (Acros Organics) . Brieﬂy, ce l ls were s ee de d in tri pl ic ate
# (§7) in 96-well plates at a 4×10^3 cells/well density in 100 μL Gibco McCoy’s 5A (1X) + GlutaMAX (Modiﬁed
# (§8) Medium) with 10 % FBS and 1% Penicillin/Streptomycin. AŌer 24 h, cells were treated with increasing
# (§9) concentraƟons of the compo unds and cisplaƟn. DiluƟons for the compounds were prepared f rom 10
# (§10) mM stock in DMSO which were diluted to 100 - 0,01 μM with medium. AŌer 48 h of incubaƟon, the
# (§11) medium was removed and 100 μL of complete medium containing resazurin (0.2 mg.mL-1 ﬁnal
# (§12) concentraƟon) was adde d. AŌer 4 h of incubaƟon at 37 °C, the ﬂuoresc ence signal of the resoruﬁn
# (§13) values were then calculated using the GraphPad Prism soŌware.
# [2] = test system: A549 (human lung adenocarcinoma); assay: Cell viability (resazurin) assay, 2D model, A549; details: 48 h incubation, three independent experiments, read-out: IC50 ± SEM, A549
# Description: as §1, §2
# culture d in McCoy me dium (Gibco).
# as §3, §4, §5, §6, §7, §8, §9, §10, §11, §12, §13
# [3] = test system: RPE-1 (human retinal epithelium); assay: Cell viability (resazurin) assay, 2D model, RPE-1; details: 48 h incubation, noncancerous cell line, three independent experiments, read-out: IC50 ± SEM, RPE-1
# Description: as §1, §2
# culture d in McCoy me dium (Gibco).
# as §3, §4, §5, §6, §7, §8, §9, §10, §11, §12, §13
IC50 [1] [µM],IC50 [2] [µM],SMILES,IC50 [3] [µM]
> 100,> 100,N.[O]=[Re](=[O])(=[O])[OH] [(NH4)[ReO4]],> 100
> 100,> 100,[Cl][Cu][Cl] [CuCl2],> 100

SMILES,IC50 [1] [µM],IC50 [2] [µM],IC50 [3] [µM]
N.N.[Cl][Pt][Cl] [cisplatin],7.84 ± 0.57,10.9 ± 0.17,22.6 ± 2.74
